Here are results for 10 compounds from ChEMBL document CHEMBL4190182 (Medchemcomm, 2016).

Test [1] concerns the target T1, Sigma intracellular receptor 2 (Rattus norvegicus, UniProt Q5U3Y7).
T1 sequence (Q5U3Y7 whole entry): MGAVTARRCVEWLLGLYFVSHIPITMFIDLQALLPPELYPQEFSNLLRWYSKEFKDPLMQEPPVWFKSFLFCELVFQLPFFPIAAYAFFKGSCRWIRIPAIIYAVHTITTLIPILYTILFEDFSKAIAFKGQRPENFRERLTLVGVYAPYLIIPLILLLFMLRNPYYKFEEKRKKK
Briefly: Displacement of [3H]DTG from sigma2 receptor in Sprague-Dawley rat liver membranes after 120 mins by scintillation counting analysis. It counts as cell membranes, Membrane.

For a further test, the target named is Mu-type opioid receptor (Cavia porcellus, UniProt P97266). Briefly: Displacement of [3H]DAMGO from mu opioid receptor in guinea pig brain membranes after 120 mins by scintillation counting analysis. It is filed as cell membranes, Membrane. (In general: Displacement assays read how much labelled ligand stays bound in the presence of the test substance.)
For test [2], the target named is T2, Kappa-type opioid receptor (Cavia porcellus, UniProt P41144). Kind of test: Displacement of [3H]U-69,593 from kappa opioid receptor in guinea pig brain membranes after 120 mins by scintillation counting analysis. It counts as cell membranes, Membrane.
Test [3] concerns the target Sigma non-opioid intracellular receptor 1 (Cavia porcellus, UniProt Q60492). Kind of test: Displacement of [3H]-(+)-Pentazocine from sigma1 receptor in guinea pig brain cortex membranes after 120 mins by scintillation counting analysis. It counts as cell membranes.
Test [4] deals with Delta-type opioid receptor (Rattus norvegicus, UniProt P33533). Briefly: Displacement of [3H]DPDPE from delta opioid receptor in Sprague-Dawley rat brain membranes after 120 mins by scintillation counting analysis. It is filed as cell membranes, Membrane.
In test [5] the target is T2, Kappa-type opioid receptor. Kind of test: Displacement of [3H]U-69,593 from kappa opioid receptor in guinea pig brain membranes by scintillation counting analysis. It is filed as cell membranes, Membrane.
In test [6] the target is Kappa-type opioid receptor (Homo sapiens) (UniProt P41145). Kind of test: Agonist activity at kappa opioid receptor in HEK293 cells at 1 uM after 30 mins by [35S]-GTPgammaS binding assay relative to control. It is filed as functional, cell-based. On the technique in general: GTPγS is a poorly hydrolysed GTP analogue; its binding reports G protein activation.

SMILES strings stand for the structures.

Chain of Mu-type opioid receptor (P97266 whole entry): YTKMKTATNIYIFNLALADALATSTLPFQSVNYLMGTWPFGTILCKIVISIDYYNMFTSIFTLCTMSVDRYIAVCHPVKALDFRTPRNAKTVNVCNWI
Chain of Sigma non-opioid intracellular receptor 1 (Q60492 whole entry): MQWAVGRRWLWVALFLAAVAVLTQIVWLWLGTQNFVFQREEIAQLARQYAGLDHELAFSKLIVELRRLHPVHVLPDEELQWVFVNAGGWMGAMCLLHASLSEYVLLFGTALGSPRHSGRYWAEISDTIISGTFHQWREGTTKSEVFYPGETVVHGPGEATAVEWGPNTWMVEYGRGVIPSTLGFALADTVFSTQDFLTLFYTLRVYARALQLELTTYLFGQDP
Chain of Delta-type opioid receptor (P33533 whole entry): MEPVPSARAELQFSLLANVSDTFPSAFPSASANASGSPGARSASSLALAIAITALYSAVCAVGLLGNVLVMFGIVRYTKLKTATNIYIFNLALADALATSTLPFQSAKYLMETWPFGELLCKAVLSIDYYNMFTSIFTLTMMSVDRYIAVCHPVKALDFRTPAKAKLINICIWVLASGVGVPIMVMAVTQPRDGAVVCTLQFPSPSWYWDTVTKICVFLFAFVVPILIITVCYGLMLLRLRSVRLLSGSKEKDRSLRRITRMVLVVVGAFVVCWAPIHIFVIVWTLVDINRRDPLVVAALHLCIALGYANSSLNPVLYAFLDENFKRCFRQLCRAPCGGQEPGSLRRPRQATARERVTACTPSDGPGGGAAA
T2 sequence (P41144 whole entry): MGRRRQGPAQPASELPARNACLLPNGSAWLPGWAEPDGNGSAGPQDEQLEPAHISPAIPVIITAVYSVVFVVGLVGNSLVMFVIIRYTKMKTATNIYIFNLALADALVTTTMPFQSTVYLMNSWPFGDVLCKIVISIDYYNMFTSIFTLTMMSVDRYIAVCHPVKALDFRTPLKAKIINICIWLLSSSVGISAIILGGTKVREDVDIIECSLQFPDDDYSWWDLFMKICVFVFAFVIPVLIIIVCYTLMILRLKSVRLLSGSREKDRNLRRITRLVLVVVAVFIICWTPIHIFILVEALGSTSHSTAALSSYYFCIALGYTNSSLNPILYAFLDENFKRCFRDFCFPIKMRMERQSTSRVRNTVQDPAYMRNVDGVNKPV
Chain of Kappa-type opioid receptor (Homo sapiens) (P41145 whole entry): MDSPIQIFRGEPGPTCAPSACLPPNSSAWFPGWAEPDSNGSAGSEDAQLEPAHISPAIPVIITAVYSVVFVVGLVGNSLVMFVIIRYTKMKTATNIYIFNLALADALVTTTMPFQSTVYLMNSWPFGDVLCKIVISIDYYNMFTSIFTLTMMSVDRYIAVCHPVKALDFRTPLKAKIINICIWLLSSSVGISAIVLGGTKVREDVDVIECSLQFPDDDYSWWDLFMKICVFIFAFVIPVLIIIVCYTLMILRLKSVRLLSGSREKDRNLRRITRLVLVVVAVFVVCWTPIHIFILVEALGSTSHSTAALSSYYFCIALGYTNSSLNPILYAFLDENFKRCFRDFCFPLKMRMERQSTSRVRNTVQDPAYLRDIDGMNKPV

With `CCN1CC2OCCN(C(=O)Cc3ccc(Cl)c(Cl)c3)C2C(N2CCCC2)C1` (racemic), the Ki in test [1] is 102 nM; on Mu-type opioid receptor, more than 1000 nM; in test [2], 1300 nM; in test [3], 391 nM; in test [4], more than 1000 nM.
`O=C1COC2CN(C(=O)Cc3ccc(Cl)c(Cl)c3)CC(N3CCCC3)C2N1` (racemic): the Ki (in test [1]; at Mu-type opioid receptor; in test [2]; in test [3]; in test [4]) was more than 1000 nM in each case.
The compound `COC(=O)N1CCC(NC(=O)Cc2ccc(Cl)c(Cl)c2)C([C@@H](C)N2CCCC2)C1` (stereo partly drawn) showed a Ki in test [5] of 0.31 nM.
As for `CN1CC2OCCN(C(=O)Cc3ccc(Cl)c(Cl)c3)C2C(N2CCCC2)C1` (racemic), the Ki in test [1] was more than 1000 nM; on Mu-type opioid receptor it was more than 1000 nM; in test [2], 286 nM; in test [3] it was more than 1000 nM; in test [4], more than 1000 nM.
For the compound `O=C(Cc1ccc(Cl)c(Cl)c1)N1CCOC2CN(Cc3ccccc3)CC(N3CCCC3)C21` (racemic), the Ki is more than 1000 nM in test [1]; 261 nM at Mu-type opioid receptor; 912 nM in test [2]; 983 nM in test [3]; 260 nM in test [4].
Turning to `O=C(Cc1ccc(Cl)c(Cl)c1)N1CCOC2CN(C3CCCC3)CC(N3CCCC3)C21` (racemic), the Ki in test [1] is 45 nM; on Mu-type opioid receptor it was 447 nM; in test [2], more than 1000 nM; in test [3], 181 nM; in test [4], 717 nM.
Turning to `O=C(Cc1ccc(Cl)c(Cl)c1)N1CC2OCCN(C(=O)Cc3ccc(Cl)c(Cl)c3)C2C(N2CCCC2)C1` (racemic), in test [1], the Ki is more than 1000 nM.
With `O=C(Cc1ccc(Cl)c(Cl)c1)N1CCOC2CNCC(N3CCCC3)C21` (racemic), the Ki in test [1] is more than 1000 nM; on Mu-type opioid receptor it was more than 1000 nM; in test [2], 132 nM; in test [3] it was more than 1000 nM; in test [4], more than 1000 nM. Also, the Activity in test [6] turned out to be 27%.
With `CCCCN1CC2OCCN(C(=O)Cc3ccc(Cl)c(Cl)c3)C2C(N2CCCC2)C1` (racemic), the Ki in test [1] is 316 nM; at Mu-type opioid receptor it was 502 nM; in test [2] it was more than 1000 nM; in test [3] it was 192 nM; in test [4], more than 1000 nM.
As for `O=C(Cc1ccc(Cl)c(Cl)c1)N1CCOC2CN(Cc3cccnc3)CC(N3CCCC3)C21` (racemic), the Ki in test [1] was more than 1000 nM; on Mu-type opioid receptor, 633 nM; in test [2] it was more than 1000 nM; in test [3], 291 nM; in test [4] it was 666 nM.

As a reminder, the Ki is the dissociation constant of the complex between target and ligand, obtained from inhibition or displacement. Low readings indicate tighter binding, high ones weaker binding.
